Experimental data: the supplement of paper PMC10307832

What was measured:
Assay in all cases: relative viability (nuclei count vs DMSO), 5 days (fraction); higher = more cells survive
[1] = compound: Cc1ccc(Nc2nccc(N(C)c3ccc4c(C)n(C)nc4c3)n2)cc1S(N)(=O)=O [Pazopanib] + C[C@@H](Oc1cc(-c2cnn(C3CCNCC3)c2)cnc1N)c1c(Cl)ccc(F)c1Cl [Crizotinib] (partner 1 µM)
Summary of the method: (§1)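 Cells from lung cancer lines were seeded into 1536-well plates and, one day later, dosed by pin tool. Treatments were either a single drug or a fixed dose of an anchor drug with five library-drug doses (not always all listed) in √10 steps. After 5 days, nuclei were stained in a one-step fixation (final 0.05% Triton X-100, 1% formaldehyde, 1 ug/ml Hoechst) and counted on 4× images, and relative viability is the treated-to-vehicle nuclei ratio, as the median of duplicate plates.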

[2] = compound: Cc1ccc(Nc2nccc(N(C)c3ccc4c(C)n(C)nc4c3)n2)cc1S(N)(=O)=O [Pazopanib] + COc1cc2c(Oc3ccc(NC(=O)C4(C(=O)Nc5ccc(F)cc5)CC4)cc3F)ccnc2cc1OCCCN1CCOCC1 [Foretinib] (partner 0.25 µM)
Summary of the method: as §1

[3] = compound: Cc1ccc(C(=O)Nc2ccc(CN3CCN(C)CC3)c(C(F)(F)F)c2)cc1C#Cc1cnc2cccnn12 [Ponatinib] + Cc1nc(Nc2ncc(C(=O)Nc3c(C)cccc3Cl)s2)cc(N2CCN(CCO)CC2)n1 [Dasatinib] (partner 0.075 µM)
Summary of the method: as §1

[4] = compound: Cc1ccc(C(=O)Nc2ccc(CN3CCN(C)CC3)c(C(F)(F)F)c2)cc1C#Cc1cnc2cccnn12 [Ponatinib] + Cc1nc(NC(=O)N2CCC[C@H]2C(N)=O)sc1-c1ccnc(C(C)(C)C(F)(F)F)c1 [Alpelisib] (partner 2 µM)
Summary of the method: as §1

| Cell Line | relative viability ([1]; first compound 0.01 µM) | relative viability ([1]; first compound 0.03162 µM) | relative viability ([1]; first compound 0.1 µM) | relative viability ([1]; first compound 0.3162 µM) | relative viability ([1]; first compound 1 µM) | relative viability ([2]; first compound 0.01 µM) | relative viability ([2]; first compound 0.03162 µM) | relative viability ([2]; first compound 0.1 µM) | relative viability ([2]; first compound 0.3162 µM) | relative viability ([2]; first compound 1 µM) | relative viability ([3]; first compound 0.002 µM) | relative viability ([3]; first compound 0.006325 µM) | relative viability ([3]; first compound 0.06325 µM) | relative viability ([3]; first compound 0.2 µM) | relative viability ([4]; first compound 0.002 µM) | relative viability ([4]; first compound 0.006325 µM) | relative viability ([4]; first compound 0.06325 µM) | relative viability ([4]; first compound 0.2 µM) |
| --- | --- | --- | --- | --- | --- | --- | --- | --- | --- | --- | --- | --- | --- | --- | --- | --- | --- | --- |
| NCI-H322M | 0.922 | 0.924 | 0.784 | 0.893 | 0.844 | 0.908 | 1.25 | 0.921 | 0.966 | 0.93 | 0.263 | 0.244 | 0.232 | 0.253 | 0.77 | 0.694 | 0.866 | 0.827 |
| NCI-H358 | 0.722 | 0.688 | 0.518 | 0.622 | 0.478 | 0.726 | 0.91 | 0.838 |  | 0.918 | 0.185 | 0.184 | 0.236 | 0.187 | 0.886 | 0.95 | 0.942 | 0.772 |
| NCI-H441 | 0.686 | 0.704 | 0.639 | 0.625 | 0.596 | 0.974 | 1.14 | 0.859 | 1 | 0.857 | 0.72 | 0.53 | 0.539 | 0.406 | 0.625 | 0.615 | 0.808 | 0.525 |
| NCI-H460 | 0.931 | 1.15 | 0.849 | 1 | 0.963 | 0.942 | 1.07 | 1.01 | 1.03 | 0.997 | 0.45 | 0.536 | 0.584 | 0.462 | 0.515 | 0.548 | 0.683 | 0.662 |
| NCI-H520 |  | 0.894 | 0.991 | 0.672 | 0.747 | 0.675 | 1.02 | 0.688 | 0.799 | 0.936 | 0.205 | 0.201 | 0.162 | 0.139 | 0.747 | 0.834 | 0.882 | 0.66 |
| NCI-H596 | 0.905 | 1.15 | 1.01 | 0.986 | 0.926 |  | 0.723 | 0.9 | 0.815 | 0.84 | 0.505 | 0.61 | 0.479 | 0.373 | 0.428 | 0.449 | 0.495 | 0.399 |
| NCI-H647 | 1 | 1.22 | 1.26 | 1.01 | 1.06 | 1.13 | 0.974 | 1.14 | 0.925 | 0.854 | 0.159 | 0.171 | 0.211 | 0.117 | 1.12 | 1.25 | 1.06 | 0.961 |
| NCI-H650 | 0.755 | 0.907 | 0.608 | 0.784 | 0.603 | 1.02 | 1.11 | 0.995 | 0.898 | 0.818 | 0.37 | 0.456 | 0.492 | 0.411 | 0.964 | 1.08 | 1.22 | 0.99 |
| NCI-H661 | 1.13 | 0.976 | 1.03 | 0.998 | 0.987 | 0.996 | 1.08 | 1.04 | 1 | 0.995 | 0.786 | 0.965 | 0.987 | 0.819 | 0.562 | 0.79 | 0.733 | 0.506 |
| NCI-H727 | 0.98 | 0.787 | 1.15 | 0.831 | 1.08 | 0.698 | 0.981 | 1.04 | 1.23 | 0.913 | 0.322 | 0.497 | 0.338 | 0.565 | 0.599 | 0.533 | 0.72 | 0.468 |
| NCI-H838 | 0.821 | 0.951 | 0.982 | 0.912 | 1.08 | 0.996 | 1.02 | 1.02 | 1.08 | 1.18 | 0.275 | 0.261 | 0.305 | 0.258 | 1.01 | 0.982 | 1.13 | 0.812 |
| NCI-H1355 |  | 0.965 | 1.08 | 0.982 | 1.05 | 0.804 | 1 | 1.08 | 0.979 | 1 | 0.651 | 0.714 | 0.81 | 0.668 | 0.832 | 0.87 | 1.01 | 0.917 |
| NCI-H1437 | 0.936 | 0.935 | 0.953 | 0.807 | 1.05 | 1.33 | 1.25 | 1.16 | 1.21 | 1.31 | 0.316 | 0.382 | 0.36 | 0.357 | 0.952 | 0.969 | 1.17 | 1.03 |
| NCI-H1563 | 0.963 | 0.88 | 0.894 | 0.878 | 0.888 | 0.823 | 0.966 | 1.04 | 0.969 | 1.08 | 0.473 | 0.506 | 0.447 | 0.434 | 0.998 | 0.953 | 1 | 0.789 |
| NCI-H1651 | 0.809 | 0.775 | 0.822 | 0.853 | 0.924 | 0.836 | 0.734 | 0.817 | 0.773 | 0.895 | 0.398 | 0.435 | 0.451 | 0.355 | 0.867 | 1.06 | 1.07 | 0.991 |
| NCI-H1666 | 1.09 | 1 | 0.875 | 1.09 | 1.27 | 0.998 | 1.01 | 0.995 | 1.02 | 1.1 | 0.761 | 0.829 | 0.906 | 0.853 | 0.864 | 1.04 | 1.05 | 1.07 |
